Assay results from PubChem BioAssay (NCI).
Several values for one entry are separate records, joined by “and”; a condition that tells them apart may be missing. Equal values may be shown once.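 Where inhibition never reached the appropriate level, the endpoint shown equals the highest concentration tested. Otherwise, values were interpolated linearly from a five-concentration, 48-hour dose response in 96-well plates. GI50 = concentration required for 50% inhibition of growth. TGI is the concentration that stops growth completely.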

Tests used:
Assay in all cases: inhibition of tumour cell growth, NCI panel, 48 h
BT-549 breast = test system: BT-549 breast
MDA-N = test system: MDA-N
LXFL 529 NSCLC = test system: LXFL 529 NSCLC
SNB-78 CNS = test system: SNB-78 CNS
DMS 114 small cell lung = test system: DMS 114 small cell lung
HOP-18 NSCLC = test system: HOP-18 NSCLC
XF 498 CNS = test system: XF 498 CNS
DMS 273 small cell lung = test system: DMS 273 small cell lung

Clc1ccc(CNc2nccc(-c3cnn4ncccc34)n2)cc1
GI50 (BT-549 breast): 6.4 µM
TGI (BT-549 breast): 14.7 µM

N#C/C(=C\c1c(-c2ccccc2)[nH]c2ccccc12)C(=O)c1ccccc1
GI50 (BT-549 breast): 3 µM
TGI (BT-549 breast): > 100 µM

C=C1C(=O)OC2/C=C(\CO)CC/C=C(\CO)CC(OC(=O)C(C)C)C12 (stereo not drawn)
TGI (BT-549 breast): 23.4 µM
TGI (MDA-N): 17.9 µM

c1ccc(B2OCC(C3OB(c4ccccc4)OC4COB(c5ccccc5)OC43)O2)cc1 (stereo not drawn)
TGI (BT-549 breast): > 100 µM
TGI (MDA-N): > 100 µM

Clc1cc(-c2ccccc2)nc2ccccc12
TGI (BT-549 breast): 80.4 µM
TGI (MDA-N): > 100 µM

CC1(C)CC([P+](c2ccccc2)(c2ccccc2)c2ccccc2)=NN1
GI50 (BT-549 breast): 1.03 µM
TGI (BT-549 breast): 4.42 µM

Cc1ncc(C(=O)Nc2ccc(CN3CCN(C)CC3)c(C(F)(F)F)c2)cc1C#Cc1c(N)ncc2ccccc12
GI50 (BT-549 breast): 0.894 µM
TGI (BT-549 breast): 1.96 µM

CCOc1nccc2c1nc(-c1nonc1N)n2CC
GI50 (BT-549 breast): > 25 µM
TGI (BT-549 breast): > 25 µM

CC1(C(=O)O)CCOc2ccccc21 (stereo not drawn)
TGI (LXFL 529 NSCLC): > 100 µM
TGI (SNB-78 CNS): > 100 µM
TGI (DMS 114 small cell lung): > 100 µM
TGI (HOP-18 NSCLC): > 100 µM

Cn1cnc2c(F)c(Nc3ccc(Br)cc3F)c(C(=O)NOCCO)cc21
GI50 (BT-549 breast): > 60.2 µM
TGI (BT-549 breast): > 100 µM

COc1ccc(-c2ccc(-c3ccc(C(=N)N)cn3)o2)cc1Cl
GI50 (BT-549 breast): 1.75 µM
TGI (BT-549 breast): 3.21 µM

C=C1C(OC/C=C/COC2O[C@@H]3O[C@@]4(C)CC[C@H]5[C@H](C)CC[C@@H](C2=C)[C@@]35OO4)O[C@@H]2O[C@@]3(C)CC[C@H]4[C@H](C)CC[C@@H]1[C@@]24OO3 (stereo partly drawn)
GI50 (BT-549 breast): 3.07 µM
TGI (BT-549 breast): 41.1 µM

CCN(CC)CCn1c2ccc(OC)cc2c2sc3cc(OC)ccc3c(=O)c21
GI50 (BT-549 breast): 2.24 µM
TGI (BT-549 breast): 5.95 µM

COc1cc(F)c(/C=C/c2cc(/C=C/c3cc(OC)c(OC)cc3F)n(-c3cc(F)cc(F)c3)n2)cc1OC
GI50 (BT-549 breast): 2.35 µM
TGI (BT-549 breast): 7.51 µM

Nc1cc(S(N)(=O)=O)ccc1SSc1ccc(S(N)(=O)=O)cc1N
TGI (BT-549 breast): > 100 µM
TGI (MDA-N): > 100 µM

CC(C)C[C@H](NC(=O)CCn1ccc2ncccc2c1=O)B(O)O
GI50 (BT-549 breast): 4.86 µM
TGI (BT-549 breast): 23.1 µM

Cc1ccc(Nc2cc(C)nc(NCCCNc3ccnc4cc(Cl)ccc34)n2)cc1
GI50 (BT-549 breast): 1.63 µM
TGI (BT-549 breast): 3.4 µM

FC(F)(F)c1cccc2c(SCCc3n[nH]c(=S)o3)ccnc12
GI50 (BT-549 breast): 30 µM
TGI (BT-549 breast): > 100 µM

CC(NC(=O)C(=O)N/N=C1\C[C@@H](c2ccccc2)Nc2ccccc21)c1ccccc1 (stereo partly drawn)
TGI (LXFL 529 NSCLC): > 100 µM
TGI (SNB-78 CNS): > 100 µM
TGI (DMS 114 small cell lung): > 100 µM
TGI (XF 498 CNS): > 100 µM
TGI (DMS 273 small cell lung): > 100 µM

Cc1cnccc1N=Nc1ccc(N(C)C)cc1
TGI (BT-549 breast): 49.3 µM
TGI (MDA-N): 69.3 µM

CN1C[C@@H]2Cn3c(c(C4=C(c5cn(C)c6ccccc56)C(=O)NC4=O)c4ccccc43)C[C@H]2C1
GI50 (BT-549 breast): 4.51 µM and 4.36 µM
TGI (BT-549 breast): 8.4 µM and 8.59 µM

CC(C)C[C@H](NC(=O)[C@H](Cc1cccc2ccccc12)NS(=O)(=O)c1cccc2cccnc12)B(O)O
GI50 (BT-549 breast): 0.000863 µM
TGI (BT-549 breast): 0.0395 µM

COc1cccc(CCC(=O)c2cc3c(N)c(C(=O)Nc4cccc(Cl)c4C)sc3nc2C)c1
GI50 (BT-549 breast): 0.951 µM
TGI (BT-549 breast): 99.6 µM

COC(=O)[C@H](C)NC(=O)[C@@H](OC)[C@@H]1Cc2cc3cc(OC4CC(OC5CC(O)C(O)C(C)O5)C(O)C(C)O4)c(C)c(O)c3c(O)c2C(=O)[C@H]1OC1CC(OC2CC(OC3CC(C)(O)C(O)C(C)O3)C(O)C(C)O2)C(O)C(C)O1 (stereo partly drawn)
GI50 (BT-549 breast): 0.0881 µM
TGI (BT-549 breast): 1.2 µM

O=C(CCSc1ccnc2c(C(F)(F)F)cccc12)N/N=C/c1cc(Cl)c(Cl)cc1Cl
GI50 (BT-549 breast): 18 µM
TGI (BT-549 breast): 38.9 µM

CCNNC(=O)[C@@H]1[C@H](c2cc(OC)c(OC)c(OC)c2)c2cc3c(cc2[C@H](O)[C@H]1CO)OCO3
GI50 (BT-549 breast): 0.413 µM

CCc1ccc2nccc(NCCCN(C)C)c2c1[N+](=O)[O-]
TGI (MDA-N): > 100 µM

CCOC(=O)C(C(=O)OCC)C(=O)c1ccccc1C(=O)c1ccccc1
TGI (BT-549 breast): > 100 µM

CN(CC(=O)O)Cc1oc(CO)cc(=O)c1O
TGI (BT-549 breast): > 100 µM
TGI (MDA-N): > 100 µM

C=C(CNC(=O)c1ccccc1)c1ccc(C(=O)Nc2ccccc2N)cc1
GI50 (BT-549 breast): 19.6 µM
TGI (BT-549 breast): > 100 µM

O=c1oc2c3ccc4cnccc4c3[nH]c2c2ccccc12
GI50 (BT-549 breast): 14.2 µM
TGI (BT-549 breast): 29.2 µM

COc1cc(C2CC(=O)Nc3c2ccc2ccccc32)cc(Br)c1OC (stereo not drawn)
GI50 (BT-549 breast): 0.384 µM
TGI (BT-549 breast): 17.5 µM

O=S(=O)(NC1=NCCN1C(=S)SN1CCn2c1nsc2=S)c1ccccc1Cl
GI50 (BT-549 breast): 8 µM
TGI (BT-549 breast): 36 µM

CC(=O)OC1CCC2C(=CCC3C2(C)C(=O)CC2(C)C(C4(C)OC(C(C)C)=CC4=O)C(O)CC32C)C1(C)C (stereo not drawn)
TGI (LXFL 529 NSCLC): 92.1 µM
TGI (SNB-78 CNS): > 100 µM
TGI (DMS 114 small cell lung): 57.8 µM
TGI (XF 498 CNS): > 100 µM
TGI (DMS 273 small cell lung): 58.3 µM

CS(=O)(=O)N(CCC#N)c1ccc(C=O)cc1
TGI (LXFL 529 NSCLC): > 100 µM
TGI (DMS 114 small cell lung): > 100 µM
TGI (XF 498 CNS): > 100 µM
TGI (DMS 273 small cell lung): > 100 µM

CCOC(=O)N1C(c2ccccc2)C=CC(c2ccccc2)N1C(=O)OCC (stereo not drawn)
TGI (SNB-78 CNS): > 100 µM
TGI (DMS 114 small cell lung): > 100 µM
TGI (XF 498 CNS): > 100 µM
TGI (HOP-18 NSCLC): > 100 µM

COc1c(Cl)ccc2c(-c3nc4cc(Cl)c(F)cc4s3)cc(=O)oc12
GI50 (BT-549 breast): 7.58 µM
TGI (BT-549 breast): 37.5 µM
